The source of these data is patent US20230192701A1, “BICYCLIC KINASE INHIBITORS AND USES THEREOF” (iOmx Therapeutics AG, priority 2020, published 2023).

Values after ≈ are worked out from the molar mass of the structure shown.

A short description of series [1]: Human plasma-protein binding (RED method). It counts as in vitro ADME. As to the method: Human and mice protein plasma binding was determined using the Plasma Protein Binding by RED Method. Briefly, 200 uL of the respective plasma containing the test compound (10 uM) was spiked into the donor well (RED Chamber) of the insert. 350 uL of PBS was spiked into receiver well (white chamber). The plate was incubated at 37° C. in a thermomixer at 400 rpm for 5 hours. The samples were matrix equilibrated with opposite matrix (25 uL blank buffet/Plasma). Matrix matched samples were precipitated with 200 uL of Acetonitrile containing Internal standard. Samples were vortexed at 1000 rpm for 5 min and centrifuged at 4000 rpm for 10 min. The supernatant was diluted 2 folds with water and % bound and unbound protein and % recovery at 5 h was determined by LC-MS/MS.
(§1) LC-MS/MS was performed for all assays using a C18 column (50*4.6 mm, 5 um) for the CaCo2 assay, or a C18 column (50*4.6 mm, 4 um) for the other assays. The mobile phases used were 10 mM Ammonium Acetate with 0.1% Formic acid (aqueous) and 100% Acetonitrile (organic).

For series [2], the system named is 335 wild-type protein kinases. In words: single-point inhibition assays, residual activity (ProQinase Kinase Profiler). It counts as biochemical. As to conditions: single-point 0.1 uM and 1 uM, 335 kinases. As to the method:
Several compounds of Formula (I) described herein were also tested in single-point (0.1 uM and 1 uM) inhibition assays over a diverse set of 335 wild-type protein (ProQinase “Kinase Profiler”; ProQinase, Freiburg, Germany), in which the residual activity of each kinase was determined. […] Secondly, the residual activity of each kinase was compared to other compounds tested (in particular, against the prior art compounds PY1) by use of scatter plots.

Series [3] can be described thus: CaCo2 permeability and efflux assay. It counts as in vitro ADME. As to conditions: human, Caco-2; CaCo2, mean efflux ratio. As to the method: (§2) To determine apparent permeability of the compounds an assay using a Caco-2 cells monolayer (cultured for 21d) in a 24-well format (poly carbonate high pore density plate with 0.4 μm pore size and a 0.7 cm2 active membrane area; Millipore) was performed as followed. 800 uL of DMEM was added to the basal compartment of the 24 well-plate and 60000 CaCo2 cells/well were seeded in the apical wells and incubated in a CO2 incubator at 37° C. for proliferation of cells. Apical to Basal permeability was determined by adding 400 uL of test compound to the apical well and 800 uL of HBSS buffer with 2% BSA to the basal well. 25 uL of basal sample was collected after 120 min and processed as stated below. Basal to Apical permeability was determined by adding 800 uL of test compound to basal well and 400 uL of HBSS buffer with 2% BSA to apical well. 25 uL of apical sample was collected after 120 min and processed as stated below. The samples were processed by diluting the donor samples 1:1 with HBSS containing 2% BSA and the receiver samples 1:1 with HBSS buffer. Samples were then precipitated with 200 uL of acetonitrile containing internal standard, vortexed for 5 min at 1000 rpm, and centrifuged at 4000 rpm for 20 min. 150 uL of supernatant was diluted with 150 uL of water and submitted for LC-MS/MS analysis, and Bi-directional (A-B and B-A) apparent permeability (Papp) was calculated.
as §1
Background: Caco-2 monolayers are a common model of the intestinal barrier.

Another series deals with Caco-2 cells monolayer. Put plainly: CaCo2 permeability and efflux assay. It counts as in vitro ADME. As to conditions: CaCo2, apical to basal, 120 min. As to the method: as §2, §1
The nature of series [4]: Mouse hepatocyte stability. It counts as in vitro ADME. As to conditions: mouse hepatocytes, 37°C. The method, then: Determination of human and mice hepatocyte stability was conducted as follows. 200 uL of the respective hepatocyte cell suspension (2×10e6/ml) was preincubated at 37° C. for 10 min. Then, 200 uL of a 2 uM working stock of the test compound was added to the hepatocyte cell suspension, and the mixture was further incubated at 37° C. and 500 rpm. The reaction was stopped at 30, 60 and 120 min by precipitating 50 uL of the incubation mixture with 200 uL of acetonitrile. Samples were vortexed for 5 min at 1200 rpm and centrifuged at 4000 rpm for 10 min. Intrinsic clearance and half-life were analysed using LC-MS/MS.
as §1

For a further series, the system named is MC38 tumour cells. In words: TNF-sensitised cell viability assay (CellTiter-Glo), MC38. It counts as cell-based, murine. As to conditions: Mus musculus, MC-38, read-out: MC38 IC50 (at 100 ng/ml rMuTNF); 100 ng/ml rMuTNF, 72 h. For orientation: In ATP-based viability assays light output follows the ATP content of the culture.
A short description of another series: Kinetic solubility assay. It counts as physicochemical. As to conditions: aqueous buffer, kinetic from dmso stock; PBS buffer pH 7.4, 1.0% DMSO, 24 h at RT. As to the method: The Kinetic solubility assay was conducted as follows. 4 uL compound of the 50 mM DMSO stock was added to deep well plate containing 396 uL PBS buffer (pH 7.4). The DMSO content in the sample was 1.0%, and the compound concentration 500 μM. The sample plate was vortexed at 800 rpm for 24 h at RT on a thermomixer. At the end of the incubation period, the sample plate was centrifuged at 4000 rpm for 10 mins. 3 uL of supernatant was transferred to well containing 297 uL of ISTD in Acetonitrile water:50:50, v/v and analysed in LC-MS/MS against a calibration curve (CC).

With `COc1ccc(N2C(=O)N(c3c(C)csc3Cl)Cc3cnc(Nc4ccc(C5CCN(C)CC5)cc4OC)nc32)nc1` [AA1, 3-(2-chloro-4-methylthiophen-3-yl)-7-((2-methoxy-4-(1-methylpiperidin-4-yl)phenyl)amino)-l-(5-methoxypyridin-2-yl)-3,4-dihydropyrimido[4,5-d]pyrimidin-2(1H)-one], the recovery at 5 h, 10 uM in series [1] came to 32%. For the same compound, in series [2], the “overall kinase profile compared to prior art compound PY1” value is recorded as “most similar overall kinase profile to the prior art compound PY1”; the “particular kinases with different inhibition than PY1” value is “BLK, SIK3 and TEC”. Besides, the efflux ratio (as a rule, a quotient of directional permeabilities that is used to spot active efflux) at 120 min in series [3] came out at 2.4. In the series on Caco-2 cells monolayer, the “A > B(10 EE-06 cm/s)” value is listed as 10.5 10 EE-06 cm/s. Also, the half-life (as a rule, the time in which the quantity being followed falls by half) at 1 uM in series [4] was found to be 1.73 h. Further, the IC50 with MC38 tumour cells was 1000 to 1500 nM. Further, in the series “Kinetic solubility assay”, the kinetic solubility (commonly solubility judged after dilution from a stock solution rather than from solid) at 24 h amounted to 6.9 µM (≈ 4.18 µg/mL).
